# Test results published in patent publication US6303366A, “Biodegradation of the gasoline oxygenates” (Envirogen, Inc., priority 1999, dated 2001).
# Legend:
# strain ENV425 [1] = assay: Growth studies on MTBE pathway intermediates; format: cell-based, Nocardia
# M. vaccae JOB5 [2] = assay: Gas chromatography degradation assay, washed cells; format: cell-based, Mycobacterium vaccae; conditions: for % Degraded: 30 mg/l, 24 hours, OD550 1.0
# Method: (§1) Propane-oxidizing microorganisms were grown as described above on either propane, isopropanol, ethanol or acetone, to a cell density of OD550≥0.5. The cells were then collected by centrifugation, washed with BSM, and suspended to an OD550 of 1.0. […] The vials were sealed with Teflon-lined septa and crimp seals and incubated with shaking (250 rpm) at 30° C. for at least 24 hr. Control samples were prepared by adding 50 μl of 10 mM HgCl2 to replicate vials. HgCl2 killed the microorganisms present in the vials allowing these vials to serve as controls. At pre-determined time points, 50 μl of 10 mM HgCl2 were added to the incubating sample to stop the reaction or a sub-sample of the incubating sample was removed for analysis. Degradation of MTBE, ETBE or tert-butyl alcohol (TBA) was measured by gas chromatography.
# (§2) Gas chromatography was performed by first removing cells from the samples by centrifugation of the sample vial or the sub-sample. A pre-sealed 2-ml autosampler vial was partially evacuated by inserting a syringe needle through the septa and removing 500 μl of air. Five hundred μl of the clear supernatant fraction of the cell culture were then injected into the vial. The samples were then analyzed by injecting 1 μl of the sample directly into a Varians Model 3400 gas chromatograph equipped with a 30 m Vocol capillary column (Supelco) and a flame ionization detector. The column, injector, and detector were maintained isocratically at 80° C., 200° C., and 225° C., respectively. Standard curves of each compound were generated with aqueous standards of 10 ppm, 25 ppm, 50 ppm, and 100 ppm.
# ENV420 = assay: Gas chromatography degradation assay, washed cells; format: cell-based; conditions: 30 mg/l, 24 hours, OD550 1.0
# Method: as §1, §2
# ENV425 [3] = assay: Gas chromatography degradation assay, washed cells; format: cell-based, Nocardia; conditions: 30 mg/l, 24 hours, OD550 1.0
# Method: as §1, §2
# strain ENV425 [4] = assay: Laboratory-scale membrane bioreactor degradation of MTBE; set-up: species or system Nocardia
# Method: The BSM feed rate was 1.7 ml/min. to create a hydraulic residence time in the reactor of 2.5 days. The effluent of the reactor passed over the surface of a 100,000 mwt ultra filtration membrane (Model CR250; Raisio Flootek, Molmo, Sweden), at a flow rate of 1.2 to 2.2 ml/min at a pressure of from 1 to 1.5 psi. The retenate containing cells were passed back into the reactor, and the filtrate was discarded as the treated effluent. The reactor was operated at 30° C. at a pH of 7. […] Oxygen concentration within the reactor was monitored by using an Ingold […] and a Cole Palmer model 01971-00 oxygen monitor, and oxygen concentration was maintained at >1% air saturation by adding air or oxygen directly to the reactor.
# ENV425 [5] = assay: Field-scale membrane bioreactor treating MTBE-contaminated groundwater; set-up: species or system Nocardia; conditions: for % Removed: continuous operation
# Source text: Propane oxidizing bacteria were deployed in a field-scale membrane bioreactor (MBR) system to treat MTBE-contaminated groundwater at an oil refinery. An MBR is a type of suspended growth reactor.
# The MBR system used in the present example consisted of a 1000-gallon tank equipped with a variable speed mixer, an air diffuser capable of providing up to 600 ft^3 of air per hour, an automated pH controller, and nutrient and caustic feed systems. Soda ash was used to control pH, and a soluble fertilizer, in this case fish oil emulsion, was used as a nutrient. (Other types of soluble agricultural fertilizer can be used to supply nutrients.) The weight ratio of the nutrient comprised approximately 100 parts carbon:10 parts nitrogen:1 part phosphate. The fertilizer was added continuously to the influent contaminant stream by using a LMI model A771-152S chemical metering pump. The liquid level in the reactor was controlled by using two Dwyer model 603-A level transmitters set to maintain a reactor liquid volume of from 700 to 900 gallons.
# The pH was monitored and controlled by using a Rosemount model 1055APH pH analyzer/controller and a Rosemount model 385-2-8-54 pH sensor that measured pH in the reactor. Caustic was added to the influent feed line by using an LMI model A771-152S chemical metering pump. Effluent from the reactor was passed over dual ultrafiltration membranes (Rhone Poulenc model SC37/KO9; 17.22 ft^2 of membrane surface) connected in series, then into a proof tank and then a holding tank prior to discharge into the plant's sewer system.
# Operation of the reactor system was initiated by adding 225 gallons of water to the reactor and then adding concentrated BSM solution (see above) to the reactor to create a liquid concentration of 1×BSM. Twenty liters of frozen propane-grown ENV425 that had been grown in a laboratory fermentor in BSM medium with propane as a sole source of carbon and energy was frozen prior to shipment, then thawed and added directly to the water in the reactor. […] After addition to the reactor, the ENV425 was mixed well until dispersed. Then, 1.1 L of isopropanol were added while the reactor was mixing. The reactor was operated for 1.5 days until the culture became turbid. The reactor volume was then increased to 800 gallons, additional BSM was added to a final concentration of 1×BSM and an additional 3.8 L of isopropanol were added.
# This initial operation was termed the "batch phase" and was used to ensure equilibration of the reactor prior to initiating continuous feed operation.
# Reactor effluent was passed over the ultrafiltration membranes and retenate, containing the propane-oxidizing bacteria, was returned to the reactor. Filtrate was passed to the proof tank, and a portion of the filtrate was pumped back into the reactor to maintain an appropriate liquid volume. This was done because the flux through the membrane (40 gal./day/ft^2 of membrane) was greater than the feed rate to the reactor. Some of the return liquid passed through a spray nozzle at the top of the reactor to control reactor foaming. […] Additionally, periodic samples of the reactor headspace were sampled to estimate MTBE stripping in the reactor.
# Isopropanol was used to rapidly increase biomass in the reactor and to maintain high levels of activity by the propane-oxidizing bacteria.
# [6] = rat model studies; oral; cited from earlier work
# [7] = test system: anaerobic sediment samples; conditions: the one active sample; more than 152 days of incubation; cited from earlier work
# Acetobacterium woodii = conditions: anaerobic; cited from earlier work
# Eubacterium limosum = conditions: anaerobic; cited from earlier work
# M. vaccae JOB5 [8] = assay: [^14 C]MTBE assay; format: cell-based, Mycobacterium vaccae; conditions: propane-grown, OD550 1.0, overnight, 0.5 μCi [^14 C]MTBE (2 μM MTBE)
# ENV425 [9] = assay: [^14 C]MTBE assay; format: cell-based, Nocardia
# [10] = test system: TXR mixed culture of naturally-occurring propane-oxidizing bacteria; assay: [^14 C]MTBE assay; format: cell-based; conditions: propane-grown, OD550 1.0, overnight, 0.5 μCi [^14 C]MTBE (2 μM MTBE)
# ENV425 [11] = assay: Degradation of tetrahydrofuran; format: cell-based, Nocardia; conditions: propane-grown; OD550 2.0; 40 mg/L; 48 hours; room temperature
# Method: (§3) To test the ability of propane oxidizing bacteria to degrade other environmentally-significant ether pollutants, ENV425 and a mixed culture of propane oxidizing bacteria from a laboratory bioreactor were incubated with tetrahydrofuran, and the degradation of tetrahydrofuran was measured after 48 hours. Cells of ENV425 and a mixed bioreactor culture of propane-oxidizing bacteria (termed "TXR") were grown in BSM medium with propane as the sole source of carbon and energy, collected by centrifugation, washed with BSM, and suspended in BSM to an optical density at 550 nm of 2.0. Five ml of the cell suspensions were added to 15 mL serum vials, and the vials were sealed with Teflon-lined septa and crimp tops. Vials containing BSM but no cells served as controls. Tetrahydrofuran was injected through the septa to create a final liquid concentration of 40 mg/L. The vials were then incubated at room temperature for 48 hours and analyzed by gas chromatography of subsamples of the vial headspace gas. Gas chromatography was performed as described for MTBE analysis.
# [12] = test system: mixed culture of propane-oxidizing bacteria (TXR); assay: Degradation of tetrahydrofuran; format: cell-based; conditions: propane-grown; OD550 2.0; 40 mg/L; 48 hours; room temperature
# Method: as §3
compound,measurement,setting,value
"CC(O)(CO)C(=O)O (stereo not drawn) [2,3-dihydroxy-2-methyl propionic acid]",growth of strain ENV425 on the substance,strain ENV425 [1],grows on
CC(C)O [2-propanol],growth of strain ENV425 on the substance,strain ENV425 [1],does occur
"CCOC(C)(C)C [ETBE, ethyl-tert-butyl ether]",% Degraded,M. vaccae JOB5 [2]; grown on isopropanol,80%
same,% Degraded,M. vaccae JOB5 [2]; grown on propane,100%
same,% Degraded,ENV420; grown on ethanol,31%
same,% Degraded,ENV420; grown on propane,0%
same,% Degraded,ENV425 [3]; grown on isopropanol,14%
same,% Degraded,ENV425 [3]; grown on propane,26%
"CC(C)(O)C(=O)O [HIBA, 2-hydroxy isobutyric acid]",growth of strain ENV425 on the substance,strain ENV425 [1],does not grow well
"COC(C)(C)C [MTBE, methyl-tert-butyl ether]",% Degraded,M. vaccae JOB5 [2]; grown on isopropanol,93%
same,% Degraded,M. vaccae JOB5 [2]; grown on propane,100%
same,degraded % of the added MTBE,"M. vaccae JOB5 [2]; propane-grown, 518 μM (46 ppm) MTBE, within 24 hr",100%
same,% Degraded,ENV420; grown on ethanol,86%
same,% Degraded,ENV420; grown on propane,50%
same,% Degraded,ENV425 [3]; grown on isopropanol,71%
same,% Degraded,ENV425 [3]; grown on propane,67%
same,MTBE added to the reactor removed,strain ENV425 [4]; 2.5 day hydraulic retention time,Greater than 95%
same,"MTBE stripping from the reactor, of the influent MTBE mass",strain ENV425 [4]; typically,< 5%
same,MTBE Loss % (volatilization),ENV425 [5]; 3/7,9.6%
same,MTBE Loss % (volatilization),ENV425 [5]; 3/25,0.9%
same,MTBE Loss % (volatilization),ENV425 [5]; 4/1,6.8%
same,MTBE Loss % (volatilization),ENV425 [5]; 4/8,4.6%
same,MTBE Loss % (volatilization),ENV425 [5]; 4/15,2.1%
same,MTBE Loss % (volatilization),ENV425 [5]; Averages,4.5%
same,% Removed,"ENV425 [5]; 1/29, T-101 MTBE 100 mg/l",96.4%
same,% Removed,"ENV425 [5]; 2/2, T-101 MTBE 250 mg/l",97.9%
same,% Removed,"ENV425 [5]; 2/12, T-101 MTBE 240 mg/l",91.7%
same,% Removed,"ENV425 [5]; 2/16, T-101 MTBE 200 mg/l",95.3%
same,% Removed,"ENV425 [5]; 2/19, T-101 MTBE 280 mg/l",96.1%
same,% Removed,"ENV425 [5]; 2/26, T-101 MTBE 410 mg/l",99.6%
same,% Removed,"ENV425 [5]; 3/1, T-101 MTBE 780 mg/l",96.9%
same,% Removed,"ENV425 [5]; 3/4, T-101 MTBE 680 mg/l",96.5%
same,% Removed,"ENV425 [5]; 3/7, T-101 MTBE 770 mg/l",96.1%
same,% Removed,"ENV425 [5]; 3/11, T-101 MTBE 2000 mg/l",97.0%
same,% Removed,"ENV425 [5]; 3/14, T-101 MTBE 1100 mg/l",92.0%
same,% Removed,"ENV425 [5]; 3/18, T-101 MTBE 1900 mg/l",99.5%
same,% Removed,"ENV425 [5]; 3/21, T-101 MTBE 1600 mg/l",92.5%
same,% Removed,"ENV425 [5]; 3/25, T-101 MTBE 1590 mg/l",97.0%
same,% Removed,"ENV425 [5]; 3/28, T-101 MTBE 2000 mg/l",95.4%
same,% Removed,"ENV425 [5]; 4/1, T-101 MTBE 2200 mg/l",96.8%
same,% Removed,"ENV425 [5]; 4/4, T-101 MTBE 2400 mg/l",98.0%
same,% Removed,"ENV425 [5]; 4/8, T-101 MTBE 1700 mg/l",94.6%
same,% Removed,"ENV425 [5]; Avg., T-101 MTBE 1083 mg/l",96.2%
same,"Loss of MTBE caused by stripping/volatilization, averaged",ENV425 [5]; during the demonstration,4.5%
same,influent MTBE degraded,"ENV425 [5]; field and laboratory testing, hydraulic retention time 2.5 to 3.3 days",> 90%
same,MTBE removal,"ENV425 [5]; throughout the demonstration, MTBE 40 mg/L to >2000 mg/L",Greater than 90%
same,no-observable-adverse-effect-level (NOAEL),[6],100 mg/kg/day
same,transformation of MTBE,[7],about 50%
same,degradation by resting cells,Acetobacterium woodii,not degraded
same,degradation by resting cells,Eubacterium limosum,not degraded
"CC(C)(C)O [TBA, tertiary-butyl alcohol]",% Degraded,M. vaccae JOB5 [2]; grown on isopropanol,11%
same,% Degraded,M. vaccae JOB5 [2]; grown on propane,45%
same,degraded % of the added TBA,"M. vaccae JOB5 [2]; propane-grown, within 24 hr",100%
same,% Degraded,ENV420; grown on ethanol,56%
same,% Degraded,ENV420; grown on propane,10%
same,% Degraded,ENV425 [3]; grown on isopropanol,0%
same,% Degraded,ENV425 [3]; grown on propane,23%
[14CH3]O[14C]([14CH3])([14CH3])[14CH3] [[^14 C]MTBE],Percent of added [^14 C] in particulate fraction,M. vaccae JOB5 [8],0%
same,Percent of added [^14 C] in CO2 fraction,M. vaccae JOB5 [8]; mean (SD) of three,27(2) Percent
same,Percent of added [^14 C] in liquid fraction,M. vaccae JOB5 [8]; mean (SD) of three,71(2) Percent
same,added [^14 C]MTBE converted to ^14 CO2,ENV425 [9]; env425,> 65%
same,Percent of added [^14 C] in CO2 fraction,"ENV425 [9]; propane-grown, OD550 5.0, overnight, 0.5 μCi [^14 C]MTBE (2 μM MTBE)",41%
same,Percent of added [^14 C] in particulate fraction,[10],0%
same,Percent of added [^14 C] in CO2 fraction,[10]; mean (SD) of three,53(1) Percent
same,Percent of added [^14 C] in liquid fraction,[10]; mean (SD) of three,46(1.5) Percent
CC(=O)O [acetic acid],growth of strain ENV425 on the substance,strain ENV425 [1],does occur
CC(C)=O [acetone],growth of strain ENV425 on the substance,strain ENV425 [1],does occur
CC(=O)CO [hydroxyacetone],growth of strain ENV425 on the substance,strain ENV425 [1],does occur
CC(O)C(=O)O (stereo not drawn) [lactic acid],growth of strain ENV425 on the substance,strain ENV425 [1],grows on
C=C(C)C(=O)O [methacrylic acid],growth of strain ENV425 on the substance,strain ENV425 [1],grows on
C1CCOC1 [tetrahydrofuran],tetrahydrofuran degraded,ENV425 [11],100%
same,tetrahydrofuran degraded,[12],100%
